Laboratory results published in ChEMBL document CHEMBL6087468, “TKK130 is a 3-Hydroxy-Propanamidine (HPA) with Potent Antimalarial In Vivo Activity and a High Barrier to Resistance” (J Med Chem, 2025).

Tested on: Plasmodium berghei
Test: In vivo antiplasmodial activity against Plasmodium berghei infected mouse model assessed as curation rate at 3 mg/kg, po treated 4 times measured at 96 hrs post infection by fluorescence-activated cell sorting (FACS) analysis
Type: functional

Cl.N=C(CC(O)c1cc2c(F)cc(F)cc2c2cc(C(F)(F)F)ccc12)Nc1ccc(F)cc1 (stereo unspecified)
Activity: 0%
